Experimental data as given in paper PMC8158844 (ACS Omega, 2021).
“And” between values parts separate entries of the source, which are not always exact repeats. Equal values may be shown once.

How the values were obtained:
BuChE = BuChE (Equus caballus, UniProt P81908); experiment: Inhibition of butyrylcholinesterase; assay type: biochemical, horse; conditions: read-out: BuChE inhibition at 10 μM
[1] = Metabolic stability in porcine liver S9 fraction; assay type: in vitro ADME; conditions: 30 min; for stability porcine liver S9 fractions (percent of parent remaining): 37 °C, no NADPH added
FAAH = target: T1, FAAH (Rattus norvegicus, UniProt P97612); experiment: Inhibition of fatty acid amide hydrolase; assay type: biochemical
T1 sequence (P97612 1-579): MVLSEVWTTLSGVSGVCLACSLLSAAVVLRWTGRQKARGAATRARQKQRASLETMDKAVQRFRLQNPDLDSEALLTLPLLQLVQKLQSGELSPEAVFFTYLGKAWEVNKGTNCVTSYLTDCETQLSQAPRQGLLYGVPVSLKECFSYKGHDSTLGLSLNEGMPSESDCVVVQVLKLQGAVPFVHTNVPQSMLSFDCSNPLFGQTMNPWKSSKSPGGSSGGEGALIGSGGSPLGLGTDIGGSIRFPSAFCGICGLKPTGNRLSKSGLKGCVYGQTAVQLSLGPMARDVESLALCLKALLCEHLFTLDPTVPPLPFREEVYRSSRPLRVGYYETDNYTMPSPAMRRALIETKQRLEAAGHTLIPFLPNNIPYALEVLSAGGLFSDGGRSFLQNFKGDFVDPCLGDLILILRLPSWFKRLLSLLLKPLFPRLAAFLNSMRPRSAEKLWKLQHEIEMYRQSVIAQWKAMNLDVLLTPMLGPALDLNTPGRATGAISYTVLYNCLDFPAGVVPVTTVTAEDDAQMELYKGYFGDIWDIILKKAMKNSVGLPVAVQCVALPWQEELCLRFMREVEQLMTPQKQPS

[2] = Metabolic stability in porcine blood plasma; assay type: in vitro ADME; conditions: Table 3; 30 min, 37 °C; n = 3 unless otherwise stated
[3] = Chemical stability in aqueous solution; assay type: physicochemical; conditions: PBS buffer pH 7.4 with 0.2% Triton X-100; 60 min, 37 °C
porcine albumin [4] = target: T2, porcine albumin (Sus scrofa, UniProt P08835); experiment: Stability in porcine albumin solution; assay type: in vitro ADME; conditions: porcine albumin 17.5 mg/mL in PBS; 30 min, 37 °C
human recombinant MAGL = target: T3, human recombinant MAGL (Homo sapiens, UniProt Q99685); experiment: Inhibition of monoacylglycerol lipase; assay type: biochemical
T3 sequence (Q99685 1-303): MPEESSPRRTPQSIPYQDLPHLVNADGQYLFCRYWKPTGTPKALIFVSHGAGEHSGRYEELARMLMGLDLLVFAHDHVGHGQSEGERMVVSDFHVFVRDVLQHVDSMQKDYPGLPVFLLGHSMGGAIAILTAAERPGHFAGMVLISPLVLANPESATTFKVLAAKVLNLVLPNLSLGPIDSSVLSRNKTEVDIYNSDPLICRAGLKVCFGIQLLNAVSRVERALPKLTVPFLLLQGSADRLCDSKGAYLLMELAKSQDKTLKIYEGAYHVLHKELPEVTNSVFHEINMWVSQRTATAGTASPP

porcine albumin [5] = target: T2, porcine albumin; experiment: Reaction with porcine albumin investigated by MS; conditions: 60 min, 37 °C; molar ratio compound/albumin 4:1

T2 sequence (P08835 25-607): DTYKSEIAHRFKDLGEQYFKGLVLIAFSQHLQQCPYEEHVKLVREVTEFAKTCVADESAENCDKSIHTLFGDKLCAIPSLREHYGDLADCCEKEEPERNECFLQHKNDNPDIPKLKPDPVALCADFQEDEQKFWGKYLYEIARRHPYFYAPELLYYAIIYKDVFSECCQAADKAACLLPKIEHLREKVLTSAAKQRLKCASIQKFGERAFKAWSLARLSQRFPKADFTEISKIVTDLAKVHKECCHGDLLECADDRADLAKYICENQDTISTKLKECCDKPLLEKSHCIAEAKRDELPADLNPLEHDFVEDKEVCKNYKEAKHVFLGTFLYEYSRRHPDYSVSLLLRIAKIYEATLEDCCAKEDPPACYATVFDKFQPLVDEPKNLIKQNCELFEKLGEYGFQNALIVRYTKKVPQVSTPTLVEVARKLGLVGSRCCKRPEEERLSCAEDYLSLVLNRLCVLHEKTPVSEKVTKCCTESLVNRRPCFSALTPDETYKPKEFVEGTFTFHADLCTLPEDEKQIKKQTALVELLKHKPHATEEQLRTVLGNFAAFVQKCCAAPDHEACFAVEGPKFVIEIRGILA
BuChE, sequence (P81908 whole entry): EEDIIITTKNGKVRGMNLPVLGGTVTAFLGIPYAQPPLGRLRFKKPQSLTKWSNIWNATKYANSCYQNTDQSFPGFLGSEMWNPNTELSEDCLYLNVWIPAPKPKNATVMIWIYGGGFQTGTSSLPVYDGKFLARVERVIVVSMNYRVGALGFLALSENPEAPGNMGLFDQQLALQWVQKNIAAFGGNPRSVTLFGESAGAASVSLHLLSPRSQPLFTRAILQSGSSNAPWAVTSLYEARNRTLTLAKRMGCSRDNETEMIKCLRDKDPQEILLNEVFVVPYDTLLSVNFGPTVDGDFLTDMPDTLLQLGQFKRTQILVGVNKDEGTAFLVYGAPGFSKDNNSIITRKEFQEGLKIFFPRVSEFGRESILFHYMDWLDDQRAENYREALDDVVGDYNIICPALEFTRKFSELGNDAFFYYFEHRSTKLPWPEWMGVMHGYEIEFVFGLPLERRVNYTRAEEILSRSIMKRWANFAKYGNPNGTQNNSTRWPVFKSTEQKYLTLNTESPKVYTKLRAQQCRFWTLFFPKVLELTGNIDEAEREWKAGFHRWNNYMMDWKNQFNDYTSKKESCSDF

Row | Structure (SMILES) | inhibition at 10 µM (BuChE) | stability porcine liver S9 fractions (percent of parent remaining) [1] | IC50 (FAAH) | stability porcine blood plasma (percent of parent remaining) [2] | stability in PBS buffer (percent of parent remaining) [3] | stability porcine albumin solution (percent of parent remaining) (porcine albumin [4]) | decrease in FAAH inhibitory activity compared with compound 14 (FAAH; ratio of FAAH IC50 values) | stability in the absence of BNNP (percent of parent remaining) ([1]; porcine liver homogenate) | stability in the presence of BNNP (percent of parent remaining) ([1]; porcine liver homogenate, carboxylesterase 1 inhibitor BNPP 1 mM) | IC50 (human recombinant MAGL) | number of carbamate molecules bound to albumin in the most intense MS signal (porcine albumin [5])
1 | O=C(O)Cc1ccc(OC(=O)NCCCCCn2ccc3ccc(F)cc32)cc1 [Compound 39, 2-[4-({[5-(6-Fluoroindol-1-yl)pentyl]carbamoyl}oxy)phenyl]acetic Acid] | 38% | 85 ± 3% | 14 nM | 88 ± 4% | >95% | >95% |  |  |  |  | 
2 | O=C(O)Cc1ccccc1OC(=O)NCCCCCn1ccc2ccc(F)cc21 [Compound 43] | 34% | 82 ± 5% | 4200 nM | 89 ± 1% | >95% | 89 ± 3% | more than 100 fold |  |  |  | 
3 | Cc1ccncc1OC(=O)NCCCCCn1ccc2ccc(F)cc21 [Compound 46, 4-Methylpyridin-3-yl N-[5-(6-fluoroindol-1-yl)pentyl]carbamate] |  | 56 ± 8% | 3 nM | 8 ± 2% | 74 ± 4% | 68% and 68 ± 6% |  | 56 ± 8% | 76 ± 5% | 150 nM | dual
4 | Cc1cncc(OC(=O)NCCCCCn2ccc3ccc(F)cc32)c1 [Compound 47] |  | 57 ± 5% | 2 nM | <5% | 72 ± 4% | 37% and 37 ± 4% |  |  |  | 150 nM | three
5 | NC(=O)c1cccc(-c2cccc(OC(=O)NC3CCCCC3)c2)c1 [URB597 (1), reference compound] | 35% | 80 ± 4% |  |  | >95% | 95 ± 7% |  |  |  |  | 
